The values below come from PubChem BioAssay AID2610 (Broad Institute, 2010).

Inconclusive results are not listed. Calls of active or inactive are those of the source.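 How the source made its calls: active means EC50 no more than tenfold above the top concentration tested, with valid fit and all samples agreeing; inconclusive means flat fit at 30 to 70% inhibition, poor fit, or split samples; inactive means EC50 beyond tenfold the top concentration tested.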 Some results are limits rather than exact numbers.

The subject of the test is BJeLR fibroblast viability, Alamar Blue fluorescence, 48 h. Briefly: cytotoxicity toward RAS-transformed BJeLR fibroblasts, dose response, cell-based, alamar blue fluorescence, 48 h, cherrypicked samples (AID 2610).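 Further: BJ fibroblasts with hTERT plus SV40 large and small T and HRAS V12; EC50 for loss of viable cells so potency reflects cytotoxic compounds.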
As to `Cc1c(C(=O)OCC(=O)N2CC(=O)Nc3ccccc32)oc2ccc(Br)cc12`, the EC50 is > 13.3 µM (inactive). For the compound `Cc1ccc(-c2nnc(SCC(=O)Nc3ccccc3F)o2)cc1`, the EC50 was > 13.3 µM (inactive). Regarding `CC(=O)c1ccc(NC(=O)N2CCc3ccccc3C2)cc1`, the EC50 was > 13.3 µM (inactive). In the case of `CCc1ccc(/C=C2/SC(=S)N(CCC(=O)NCCCN3CCOCC3)C2=O)cc1`, the EC50 is 2.42 µM.

`O=[N+]([O-])c1cc(Br)c(Nc2ccccc2)c([N+](=O)[O-])c1`: the EC50 was 0.537 µM.

In the case of `COc1ccc(-c2cc3nc(C)n(N)c(=O)c3s2)cc1`, the EC50 was > 13.3 µM (inactive).

With `C[C@]12CCC3C(CCC4=CC(O)CC[C@@]43/C=N/O)C1(O)CCC2C1=CC(=O)OC1` (some centres not stated), the EC50 is 0.294 µM. Regarding `CN(C)CCNC(=O)c1cc2c(s1)-c1ccc(Cl)cc1SC2`, the EC50 is 1.12 µM. Take `Cc1cc(C)c2nc(C)cc(N/N=C/c3ccc(O)cc3)c2c1`: the EC50 is 0.575 µM. Turning to `CC1CCCN(c2ccc([N+](=O)[O-])cc2C(=O)c2ccccc2)C1` (configuration not stated), the EC50 is less than 0.104 µM. To `O=C(COc1ccc(Cl)cc1)Nc1ccc(C(=O)NCc2cccnc2)cc1` belongs 4.42 µM. In the case of `CC(C)C(=O)Nc1ccc(C(=O)NCc2cccnc2)cc1`, the EC50 is 0.742 µM.

On to `CSc1ccc(COC(=O)c2cc([N+](=O)[O-])ccc2N2CCOCC2)cc1`, for which the EC50 was less than 0.104 µM.

With `CCn1c(C)nc2cc(-c3nc4n(n3)Cc3ccccc3-4)ccc21`, the EC50 is > 13.3 µM (inactive).

`CCOc1ccc(CC(=O)Nc2ccc(NC(=O)c3ccco3)cc2)cc1OCC`: the EC50 was 2.06 µM. For `COc1cccc2c1C(=O)c1c(O)c3c(c(O)c1C2=O)C[C@@](O)(C(=O)CO)C[C@@H]3O[C@H]1C[C@H](N)[C@@H](O)[C@H](C)O1`, the EC50 was less than 0.104 µM. To `COc1ccc(NC(=O)CN(C)S(=O)(=O)c2ccc3[nH]c(=O)oc3c2)cc1` belongs > 13.3 µM (inactive); to `Cc1ccc(C2CC(c3cccs3)=NN2C(=O)CCl)cc1` (configuration not stated), 0.727 µM; to `FC(F)(F)c1nnc2c(Sc3ccc(Cl)cc3)nc3ccccc3n12`, 0.531 µM. As to `COc1ccc(C2C(O)C(c3c[nH]c4ccccc34)=NN2C(=O)CCl)cc1` (configuration not stated), the EC50 was 0.307 µM.

Regarding `C=C1C(=O)C=C2CN(C(=O)c3ccccc3)[C@@](Cc3ccc(F)cc3)(C(=O)OC)[C@@H]12`, the EC50 is 0.14 µM. As for `CCCCc1c(C)c(C#N)c2nc3ccccc3n2c1Cl`, the EC50 is 0.587 µM. As for `O=C(/C=C/c1ccc([N+](=O)[O-])o1)NNC(=O)c1ccc(F)cc1`, the EC50 was 2.66 µM. Take `CN1C/C(=C/c2ccncc2)C(=O)/C(=C/c2ccncc2)C1`: the EC50 was 0.555 µM.

Take `COc1ccc(N(C(=O)CCl)C(C(=O)NCCc2ccccc2)c2cccs2)cc1Cl` (configuration not stated): the EC50 was less than 0.0502 µM. On to `C#CCOc1ccc(C2C3=C(COC3=O)Nc3cc4c(cc32)OCO4)cc1OC` (configuration not stated), for which the EC50 was less than 0.104 µM. The value for `CCc1c(C)c(C#N)c2nc3ccccc3n2c1Cl` was 0.553 µM.

With `O=C(NC(Nc1nc2ccc([N+](=O)[O-])cc2s1)(C(F)(F)F)C(F)(F)F)c1ccccc1Cl`, the EC50 was 0.427 µM. As for `O=C(NCCOc1cccnc1)c1ccc(OC2CCN(Cc3ccccn3)CC2)cc1`, the EC50 is less than 0.0919 µM. Turning to `Cn1cnc([N+](=O)[O-])c1Sc1ncnc2nc[nH]c12`, the EC50 is > 13.3 µM (inactive).

With `CNC(=S)N/N=C/c1ccc(-c2ccc(C(=O)O)cc2)o1`, the EC50 is > 13.3 µM (inactive). To `CC(C)(C)c1ccc(-n2nc(C#N)c(Cl)cc2=O)cc1` belongs 0.963 µM. Take `CC1(C)C[C@H]2C=C(C=O)[C@]3(C=O)C[C@]3(C)[C@H]2C1`: the EC50 is 0.58 µM.

With `COc1cc([C@@H]2c3cc4c(cc3[C@@H](NC3CCN(Cc5ccccc5)CC3)[C@H]3COC(=O)[C@H]23)OCO4)cc(OC)c1O`, the EC50 was 0.133 µM.

Take `S=C(N/N=C/c1ccc2ncccc2c1)Nc1ccccc1`: the EC50 is > 13.3 µM (inactive). Regarding `COC(=O)c1cccc(Nc2c3c(nc4ccccc24)CCC3)c1`, the EC50 is 2.6 µM. As for `CCc1ccc(NC(=O)[C@H](Cc2c[nH]c3ccccc23)NC(=O)[C@@H]2Cc3ccccc3CN2)cc1`, the EC50 was > 13.3 µM (inactive). `COCCCNC(=O)c1ccc2c3c(onc13)-c1ccccc1C2=O`: the EC50 was 3.15 µM. Regarding `CCc1ccc(/C=C2/SC(=S)N(CCC(=O)Nc3cccnc3)C2=O)cc1`, the EC50 is 2.75 µM. On to `O=C(N/N=C/c1cccnc1)c1ccc(NC(=O)C(c2ccccc2)c2ccccc2)cc1`, for which the concentration giving a half-maximal response (EC50) was 0.344 µM. The value for `CCOc1ccc2c(c1)C(C)=CC(C)(C)N2S(=O)(=O)c1ccc(NC(C)=O)cc1` was less than 0.104 µM. In the case of `CCN(CC)CCCNC(=O)c1cc(-c2ccccc2)c(N2CCCCC2)s1`, the EC50 was > 13.3 µM (inactive). Consider `CCOC(=O)c1c(C)[nH]c2c1-c1ccccc1C(=O)C2=O`, for which the EC50 is 0.492 µM. With `COc1ccc(C)cc1Nc1c2c(nc3ccccc13)CCC2`, the EC50 was 0.292 µM.

As to `O=C(Sc1cccc2cccnc12)c1ccccc1Br`, the EC50 is 0.337 µM.

Take `Oc1ccccc1N=Nc1nc(-c2ccccc2)c(-c2ccccc2)[nH]1`: the EC50 is 0.176 µM.

As to `COc1ccc2[nH]c(=O)c(CN(Cc3cccs3)S(=O)(=O)c3cccc4nsnc34)cc2c1`, the EC50 is 1.46 µM.

On to `CCOc1cc(/C=C2\COc3ccccc3C2=O)cc(Br)c1OCC(=O)N(C)C`, for which the EC50 was 3.08 µM. The value for `Cc1nc(N)nc(N)c1/C=C/C(C)(C)c1ccc(Cl)cc1` was > 13.3 µM (inactive); that for `CCCCCN=C(N)N/N=C/c1c[nH]c2ccc(OC)cc12` was 2.98 µM. For `COc1ccc(/C=N/NC(=O)c2[nH]c3ccc(Br)cc3c2-c2ccccc2)cc1`, the EC50 is less than 0.0703 µM. To `Cc1cc(-n2c(SCC(=O)NCCC3=CCCCC3)nc3n[nH]c(C)c3c2=N)ccc1Cl` belongs > 13.3 µM (inactive); to `CCOC(=O)c1ccc(NC(=O)Nc2ccon2)cc1`, less than 0.104 µM.

For `O=C(c1ccc2c3n(nc2c1)-c1ccccc1CO3)N1CCOCC1`, the EC50 was > 13.3 µM (inactive).

For the compound `O=Cc1cc2ccccc2nc1SCc1ccc(Cl)cc1`, the EC50 is less than 0.104 µM.

For `CN(Cc1cnc2nc(N)nc(N)c2n1)c1ccc(C(=O)N[C@@H](CCC(=O)O)C(=O)O)cc1`, the EC50 was > 13.3 µM (inactive).

`CC(C)c1onc(C(=O)N2CCN(C(c3ccccc3)c3ccccc3)CC2)c1[N+](=O)[O-]`: the EC50 is 0.522 µM.

With `COc1ccc(C)cc1NS(=O)(=O)c1ccc(-c2cnc(C3CC3)o2)cc1`, the EC50 is less than 0.104 µM. Turning to `CC1=CC(C)(C)N(S(=O)(=O)c2ccc(C)cc2)c2cc(C)ccc21`, the EC50 was 0.386 µM. The value for `CC1C/C(=C/c2ccncc2)C(=O)/C(=C/c2ccncc2)C1` (configuration not stated) was 0.4 µM; that for `COc1cc2c(c(OC)c1OC)-c1ccc(O)c(=O)cc1C(NC(C)=O)CC2` (configuration not stated) was less than 0.104 µM. `Cc1ccc(N2C(=O)c3cccc4c([N+](=O)[O-])ccc(c34)C2=O)c2cccnc12`: the EC50 was 0.523 µM. On to `Cc1ccc(N=Cc2c(C)[nH]n(-c3nc4ccccc4[nH]3)c2=O)cc1`, for which the EC50 was > 13.3 µM (inactive). Turning to `Cc1cc(N)c2cc(NC(=O)/C=C/c3ccccc3Cl)ccc2n1`, the EC50 is 1.24 µM. In the case of `CC1=CC(=O)C=C(C)C1=NOc1ccccc1[N+](=O)[O-]`, the EC50 was 0.67 µM. Regarding `CCN1/C(=C/C(C)=C/c2sc3ccccc3[n+]2CC)Sc2ccccc21`, the concentration for a half-maximal effect (EC50) was 0.152 µM. As to `O=[N+]([O-])c1ccc(N=Nc2ncc[nH]2)cc1`, the EC50 was 2.37 µM.

`Cn1cccc1/C=C1\SC(=Nc2ccc(O)cc2)NC1=O`: the 50% effective concentration (EC50) was less than 0.104 µM.

For the compound `COc1ccc(COC(=O)c2cc([N+](=O)[O-])ccc2N2CCOCC2)cc1F`, the EC50 was less than 0.104 µM. As to `Cc1ccc(/C=N/NC(=O)c2n[nH]c3c2CCCC3)cc1`, the EC50 was less than 0.104 µM. To `CCOc1ccc(OCc2cccc(C(=O)O)c2)cc1` belongs > 13.3 µM (inactive). `CCC(C)C(=O)OCC1(c2ccc(C)cc2OC(=O)C(C)C)CO1` (configuration not stated): the EC50 was > 13.3 µM (inactive). As to `O=C(CCl)Nc1cc(SCC(O)CO)cc([N+](=O)[O-])c1` (configuration not stated), the concentration for a half-maximal effect (EC50) was 0.997 µM. In the case of `O=C(N/N=C/c1cccs1)c1cc(-c2ccncc2)nc2ccccc12`, the EC50 is 0.113 µM. The value for `CC[C@@]1(O)C(=O)OCc2c1cc1n(c2=O)Cc2cc3c(NC(=O)CN)cccc3nc2-1` was 0.292 µM.

Take `COc1ccc(S(=O)(=O)N2CCOCC2)cc1NC(=O)CCNC(=O)c1ccc(Br)cc1`: the EC50 was 0.44 µM. Turning to `CC1CN(S(=O)(=O)c2ccc(C(=O)NCCCn3ccnc3)cc2)CC(C)O1` (configuration not stated), the EC50 is 0.436 µM.

As to `COc1ccc(N=C2S/C(=C\c3ccc(Cl)c([N+](=O)[O-])c3)C(=O)N2CCN(C)C)cc1`, the EC50 is 1.37 µM.

Consider `COc1ccccc1N(C(=O)CCl)c1cn(C(C)=O)c2ccccc12`, for which the EC50 is 0.717 µM.

In the case of `NS(=O)(=O)c1ccc(NC(=O)c2cc(-c3cccs3)nc3ccccc23)cc1`, the EC50 was > 13.3 µM (inactive).

Regarding `O=c1cnnc(N/N=C/c2ccccn2)[nH]1`, the EC50 is 1.03 µM. Regarding `O=C(/C=C/c1ccco1)Nc1ccc(Oc2ccccc2)cc1`, the EC50 was > 13.3 µM (inactive). Consider `Cc1onc(C(=O)N2CCN(C(c3ccccc3)c3ccccc3)CC2)c1[N+](=O)[O-]`, for which the EC50 is 0.762 µM.

With `COc1ccc(NC(=O)C(=O)NCC2CCCN2S(=O)(=O)c2ccc(C)cc2)cc1` (configuration not stated), the concentration giving a half-maximal response (EC50) is less than 0.104 µM. To `CCN(CC)c1ccc2c(cc1=O)[C@@H](NC)CCc1cc(OC)c(OC)c(OC)c1-2` belongs 0.38 µM; to `C/C(=N\Nc1ncc(Cl)cc1Cl)c1ccccn1`, less than 0.0222 µM. For `COc1ccc(/C=C2\CN(Cc3ccccc3)C/C(=C\c3ccc(OC)c(O)c3)C2=O)cc1O`, the EC50 was 0.559 µM. `C/C(=N\Nc1ncnc2sc(C)c(C)c12)c1ccccn1`: the 50% effective concentration (EC50) was less than 0.104 µM. As to `O=C(N/N=C(\c1ccccc1)c1cccnc1)c1cccc(F)c1`, the EC50 was 0.697 µM. The value for `COC(=O)C1CC23C=CCN4CCC5(c6ccccc6NC15C2C)C43` (configuration not stated) was less than 0.104 µM. As to `S=c1nc[nH]c2nc[nH]c12`, the EC50 is > 13.3 µM (inactive). To `COc1ccc(C(=O)Nc2nc3ccccc3s2)c(OC)c1` belongs > 13.3 µM (inactive).

By EC50 is commonly meant the concentration giving half of the maximal effect.
